# pIC50: −log10 of the molar value. Entries after “also recorded” stand apart in the source; their conditions may differ.
# Legend:
# [1] = target: T1, MAGE-A11:PCF11 interaction (GST-MAGE-A11 MHD and FAM-PCF11_4) (Homo sapiens, UniProt P43364); experiment: TR-FRET dose response test of compounds for disruption of MAGE-A11:PCF11 binding; conditions: Fig. 5c, 5f, Supplementary Fig. 4e legend; read-out: IC50, TR-FRET competition, disruption of MAGE-A11:PCF11 binding
# T1 construct: GST-MAGE-A11 MHD (human MAGE-A11 MHD amino acid 218-429); made in house; host or cells: E. coli BL21(DE3)
# T1 sequence (P43364 218-429): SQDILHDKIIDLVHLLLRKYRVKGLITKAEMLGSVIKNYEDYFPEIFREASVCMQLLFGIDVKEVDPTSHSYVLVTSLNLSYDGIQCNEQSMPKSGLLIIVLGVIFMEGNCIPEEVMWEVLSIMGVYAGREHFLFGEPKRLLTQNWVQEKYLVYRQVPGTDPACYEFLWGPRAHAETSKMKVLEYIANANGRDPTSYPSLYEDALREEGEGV
# In short: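 Competition of compounds against binding of FAM-PCF11_4 peptide to GST-MAGE-A11 MHD, detected with Tb-anti-GST, in 50 mM Tris pH 7.5, 20 mM MgCl2, 0.1 mg/ml BSA, 1 mM DTT. 90 min at ~25 °C; 520/490 nm emission ratio (340 nm excitation) fitted for IC50.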
# [2] = target: T2, MAGE-A3:AMPKα1 (Homo sapiens, UniProt P43357); experiment: Co-IP of MAGE-A3 with AMPKα1 in cell lysate; assay type: binding; conditions: 100 µM, 24 h
# T2 construct: expressed in transfected cells
# T2 sequence (P43357 whole entry): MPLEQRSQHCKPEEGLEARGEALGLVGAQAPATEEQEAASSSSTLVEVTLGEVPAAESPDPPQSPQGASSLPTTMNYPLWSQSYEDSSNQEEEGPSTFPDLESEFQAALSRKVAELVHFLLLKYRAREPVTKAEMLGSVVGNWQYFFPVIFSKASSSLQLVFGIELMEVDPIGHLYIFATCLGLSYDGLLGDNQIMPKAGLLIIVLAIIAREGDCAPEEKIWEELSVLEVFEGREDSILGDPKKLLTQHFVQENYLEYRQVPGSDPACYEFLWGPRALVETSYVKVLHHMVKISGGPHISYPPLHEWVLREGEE
# Protocol: HEK293FT cells were plated in 6 cm^2 plates and transfected 24 h later with Effectene (QIAGEN) according to the manufacturer’s protocol. After 48 h, cells were washed and scraped in cold PBS, spun down, and resuspended in lysis buffer (50 mM Tris pH 7.4, 150 mM NaCl, 1 mM DTT, 0.1% (v/v) Triton X-100, 10 mM N-Ethylmaleimide, and 1X protease inhibitor cocktail (Sigma)). Cell lysates were incubated with appropriate antibodies overnight at 4 °C and then with protein A beads for 2 h at 4 °C. Beads were then washed with lysis buffer three times and eluted with 2X SDS sample buffer.
# For western blotting, samples in SDS sample buffer were resolved on SDS-PAGE gels and then transferred to nitrocellulose membranes prior to blocking in TBST with 5% (w/v) milk powder or 3% (w/v) bovine serum albumin and probing with primary and secondary antibodies (GE Healthcare). Primary antibodies were: anti-Myc (Sigma, #C3956), anti-FLAG (Sigma, #F3165), anti-HUWE1 (Novus Biologicals, #NB 100-652), anti-PCF11 (Bethyl Laboratories, #A303-706A), anti-GAPDH (Cell Signaling Technology, #2118), anti-TRIM28 (Abcam, #ab22553), anti-AMPKα1 (Cell Signaling Technology, #2795), and anti-MMS19 (Proteintech, #16015-1-AP) and Tb-anti-GST (Invitrogen, #PV3551). Secondary antibodies were: Donkey Anti-Rabbit IgG (GE Healthcare, NA934V) and Sheep Anti-Mouse IgG (GE Healthcare, NA931V). […]
SMILES,pIC50 [1],interaction of MAGE-A3 with AMPKα1 in cell lysate ([2]; listed as SJ521054),interaction of MAGE-A3 with AMPKα1 in cell lysate ([2]; listed as SJ1008066)
FC(F)(F)c1ccc2c(NCCCNCc3ccc4[nH]ccc4c3)ccnc2c1 [SJ000521054-02],6.40,do not disrupt interaction; also recorded: did not disrupt interaction,
c1ccc2c(NCCCNCc3ccc4[nH]ccc4c3)ccnc2c1 [SJ001008066-01],6.89,,do not disrupt interaction; also recorded: did not disrupt interaction

# Reference: publication PMC7529893, “Structural basis for substrate recognition and chemical inhibition of oncogenic MAGE ubiquitin ligases” (Nature Communications, 2020)
